Experimental data: patent US20230062100A1, “SUBSTITUTED AMINOQUINOLONES AS DGKALPHA INHIBITORS FOR IMMUNE ACTIVATION” (Bayer Aktiengesellschaft, priority 2019, published 2023)

Molecular target: DGKα (Homo sapiens, UniProt P23743)
Test: Human DGKα kinase activity inhibition assay (ADP-Glo)
Assay type: biochemical
Conditions: in vitro human DGKα kinase activity inhibition assay
Description: Human DGKα inhibitory activity of compounds of the present invention was quantified employing the human DGKα kinase activity assay as described in the following paragraphs. In essence, the enzyme activity was measured by quantification of the adenosine-di-phosphate (ADP) generated as a co-product of the enzyme reaction via the “ADP-Glo™ Kinase Assay” kit from the company Promega. This detection system works as follows: In a first step the ATP not consumed in the kinase reaction is quantitatively converted to cAMP employing an adenylate cyclase (“ADP-Glo-reagent”), then the adenylate cyclase is stopped and the ADP generated in the kinase reaction converted to ATP, which subsequently generates in a luciferase-based reaction a glow-luminescence signal (“Kinase Detection Reagent”). C-terminally FLAG-tagged, recombinant full-length human DGKα (expressed in baculovirus infected insect cells, purified using anti-Flag pulldown and size exclusion chromatography as described below, DGKα_hu_1) was used as enzyme. As substrate for the kinase 1,2-dioleoyl-sn-glycerol, reconstituted in octyl-β-D-glucopyranoside micelles, was used. For the preparation of the micelles, 1 volume of a 16.1 mM solution of 1,2-dioleoyl-sn-glycerol (Avanti, Cat. #O8001-25G) in chloroform was slowly evaporated using a nitrogen stream. Subsequently, 22.55 volumes of a 510 mM solution of octyl-β-D-glucopyranoside (Sigma-Aldrich, Cat. #O8001-10G) in 50 mM MOPS buffer (pH 7.4) were added, and the mixture was sonicated in an ultrasonic bath for 20 s. Then 35 volumes of 50 mM MOPS buffer (pH 7.4) were added to yield a solution of 0.28 mM 1,2 dioleoyl-sn-glycerol and 200 mM octyl-β-D-glucopyranoside, which was aliquoted, flash-frozen in liquid nitrogen, and stored at −20° C. until use. For each experiment, a fresh aliquot was quickly thawed and diluted 24-fold with aqueous assay buffer (described below) containing 95.7 μM adenosine triphosphate (Promega) to yield a 1.67-fold concentrated substrate solution. For the assay 50 nl of a 100-fold concentrated solution of the test compound in dimethyl sulfoxide (DMSO, Sigma) was pipetted into either a white 1536-well or a white low-volume 384-well microtiter plate (both Greiner Bio-One, Frickenhausen, Germany). […] The concentration of DGK a was adjusted depending of the activity of the enzyme lot and was chosen appropriate to have the assay in the linear range, a typical concentration is about 0.1 nM. The reaction was stopped by the addition of 2.5 μl of “ADP-Glo-reagent” (1 to 1.5 diluted with water) and the resulting mixture was incubated at 22° C. for 1 h to convert the ATP not consumed in the kinase reaction completely to cAMP. […] The amount of emitted light was taken as a measure for the amount of ADP generated and thereby for the activity of the DGKα.

Sequence of DGKα (P23743 with tags, fused parts or gaps): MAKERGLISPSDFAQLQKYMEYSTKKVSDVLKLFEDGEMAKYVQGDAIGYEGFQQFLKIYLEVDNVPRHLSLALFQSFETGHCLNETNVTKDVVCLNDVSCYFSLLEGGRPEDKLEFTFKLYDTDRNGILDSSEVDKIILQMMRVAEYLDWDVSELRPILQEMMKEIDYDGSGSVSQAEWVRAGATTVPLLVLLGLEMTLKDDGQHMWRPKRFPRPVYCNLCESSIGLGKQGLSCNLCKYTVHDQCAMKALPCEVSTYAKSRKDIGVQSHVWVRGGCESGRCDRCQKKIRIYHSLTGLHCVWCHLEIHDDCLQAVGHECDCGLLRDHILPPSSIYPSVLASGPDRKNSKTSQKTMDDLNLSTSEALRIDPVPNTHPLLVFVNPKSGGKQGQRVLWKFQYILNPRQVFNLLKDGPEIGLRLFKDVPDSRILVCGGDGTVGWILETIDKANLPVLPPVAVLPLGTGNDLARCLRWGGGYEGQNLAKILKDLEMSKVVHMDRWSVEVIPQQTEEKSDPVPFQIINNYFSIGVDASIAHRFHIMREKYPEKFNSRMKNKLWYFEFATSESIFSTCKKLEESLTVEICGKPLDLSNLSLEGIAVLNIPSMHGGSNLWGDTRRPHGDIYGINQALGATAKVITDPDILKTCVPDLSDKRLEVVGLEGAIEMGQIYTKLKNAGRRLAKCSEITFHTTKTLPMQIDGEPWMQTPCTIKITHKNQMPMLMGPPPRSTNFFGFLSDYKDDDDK

Row | SMILES | IC50
1 | Cn1c(=O)c(C#N)c(N2CCC(Oc3ccc(F)cc3)CC2)c2ccc(Br)cc21 [Example 56, 7-bromo-4-[4-(4-fluorophenoxy)piperidin-1-yl]-1-methyl-2-oxo-1,2-dihydroquinoline-3-carbonitrile] | 0.0099 µM
2 | Cn1c(=O)c(C#N)c(N2CCC(Sc3ccccc3)CC2)c2ccc(C3CC3)cc21 [Example 68, 7-cyclopropyl-1-methyl-2-oxo-4-[4-(phenylsulfanyl)piperidin-1-yl]-1,2-dihydroquinoline-3-carbonitrile] | 0.029 µM
3 | Cn1c(=O)c(C#N)c(N2CCC(Oc3ccc(OC(F)(F)F)cc3)CC2)c2ccc(O)cc21 [Example 62, 7-hydroxy-1-methyl-2-oxo-4-{4-[4-(trifluoromethoxy)phenoxy]piperidin-1-yl}-1,2-dihydroquinoline-3-carbonitrile] | 0.0023 µM
4 | Cn1c(=O)c(C#N)c(N2CCC(Oc3ccc(OC(F)(F)F)cc3)CC2)c2ccc(Br)cc21 [Example 58, 7-bromo-1-methyl-2-oxo-4-{4-[4-(trifluoromethoxy)phenoxy]piperidin-1-yl}-1,2-dihydroquinoline-3-carbonitrile] | 0.019 µM
5 | Cn1c(=O)c(C#N)c(N2CCC(Oc3ccccc3F)CC2)c2ccccc21 [Example 33, 4-[4-(2-fluorophenoxy)piperidin-1-yl]-1-methyl-2-oxo-1,2-dihydroquinoline-3-carbonitrile] | 0.013 µM
6 | Cn1c(=O)c(C#N)c(N2CCC(Oc3cnc(C(F)(F)F)nc3)CC2)c2ccccc21 [Example 28, 1-methyl-2-oxo-4-(4-{[2-(trifluoromethyl)pyrimidin-5-yl]oxy}piperidin-1-yl)-1,2-dihydroquinoline-3-carbonitrile] | 0.521 µM
7 | Cn1c(=O)c(C#N)c(N2CCC(Oc3ccc(OC(F)(F)F)cc3)CC2)c2ccc(P(C)(C)=O)cc21 [Example 79, 7-(dimethylphosphoryl)-1-methyl-2-oxo-4-{4-[4-(trifluoromethoxy)phenoxy]piperidin-1-yl}-1,2-dihydroquinoline-3-carbonitrile] | 0.416 µM
8 | CCCCOc1ccc2c(N3CCC(Sc4ccccc4)CC3)c(C#N)c(=O)n(C)c2c1 [Example 69, 7-butoxy-1-methyl-2-oxo-4-[4-(phenylsulfanyl)piperidin-1-yl]-1,2-dihydroquinoline-3-carbonitrile] | 0.507 µM
9 | COCCc1ccc2c(N3CCC(Oc4cccc(Cl)c4)CC3)c(C#N)c(=O)n(C)c2c1 [Example 74, 4-[4-(3-chlorophenoxy)piperidin-1-yl]-7-(2-methoxyethyl)-1-methyl-2-oxo-1,2-dihydroquinoline-3-carbonitrile] | 0.0035 µM
10 | Cn1c(=O)c(C#N)c(N2CCC(Oc3ccc4cnoc4c3)CC2)c2ccccc21 [Example 29, 4-{4-[(1,2-benzoxazol-6-yl)oxy]piperidin-1-yl}-1-methyl-2-oxo-1,2-dihydroquinoline-3-carbonitrile] | 0.654 µM
11 | Cn1c(=O)c(C#N)c(N2CCC(Oc3cccc(Cl)c3)CC2)c2ccc(C3COC3)cc21 [Example 73, 4-[4-(3-chlorophenoxy)piperidin-1-yl]-1-methyl-7-(oxetan-3-yl)-2-oxo-1,2-dihydroquinoline-3-carbonitrile] | 0.013 µM
12 | CC(C)Oc1ccc(OC2CCN(c3c(C#N)c(=O)n(C)c4ccccc34)CC2)cc1 [Example 47, 1-methyl-2-oxo-4-(4-{4-[(propan-2-yl)oxy]phenoxy}piperidin-1-yl)-1,2-dihydroquinoline-3-carbonitrile] | 0.0086 µM
13 | CN(C)c1ccc(OC2CCN(c3c(C#N)c(=O)n(C)c4ccccc34)CC2)cc1 [Example 45, 4-{4-[4-(dimethylamino)phenoxy]piperidin-1-yl}-1-methyl-2-oxo-1,2-dihydroquinoline-3-carbonitrile] | 0.031 µM
14 | Cn1c(=O)c(C#N)c(N2CCC(Oc3ccc(Cl)cc3)CC2)c2ccc(N3CCCC3=O)cc21 [Example 85, 4-[4-(4-chlorophenoxy)piperidin-1-yl]-1-methyl-2-oxo-7-(2-oxopyrrolidin-1-yl)-1,2-dihydroquinoline-3-carbonitrile] | 0.028 µM
15 | CCOC(=O)c1ccc(OC2CCN(c3c(C#N)c(=O)n(C)c4ccccc34)CC2)cc1 [Example 12, ethyl 4-{[1-(3-cyano-1-methyl-2-oxo-1,2-dihydroquinolin-4-yl)piperidin-4-yl]oxy}benzoate] | 0.012 µM

Now from value to compound:

Row | IC50 | SMILES
16 | 0.0047 µM | Cc1ccc2c(c1)c(N1CCC(Oc3ccc(OC(F)(F)F)cc3)CC1)c(C#N)c(=O)n2C [Example 143, 1,6-dimethyl-2-oxo-4-{4-[4-(trifluoromethoxy)phenoxy]piperidin-1-yl}-1,2-dihydroquinoline-3-carbonitrile]
17 | 0.123 µM | Cn1c(=O)c(C#N)c(N2CCC(COc3ccccc3)CC2)c2ccccc21 [Example 118, 1-methyl-2-oxo-4-[4-(phenoxymethyl)piperidin-1-yl]-1,2-dihydroquinoline-3-carbonitrile]
18 | 0.013 µM | COc1ccccc1OC1CCN(c2c(C#N)c(=O)n(C)c3ccc(C)cc23)CC1 [Example 154, 4-[4-(2-methoxyphenoxy)piperidin-1-yl]-1,6-dimethyl-2-oxo-1,2-dihydroquinoline-3-carbonitrile]
19 | 0.556 µM | Cc1cc(Br)c2c(c1)c(N1CCC(Oc3ccc(OC(F)(F)F)cc3)CC1)c(C#N)c(=O)n2C [Example 168, 8-bromo-1,6-dimethyl-2-oxo-4-{4-[4-(trifluoromethoxy)phenoxy]piperidin-1-yl}-1,2-dihydroquinoline-3-carbonitrile]
20 | 0.032 µM | Cn1c(=O)c(C#N)c(N2CCC(Oc3ccc(C(F)(F)F)cc3)CC2)c2ccc(N3CCCC3=O)cc21 [Example 86, 1-methyl-2-oxo-7-(2-oxopyrrolidin-1-yl)-4-{4-[4-(trifluoromethyl)phenoxy]piperidin-1-yl}-1,2-dihydroquinoline-3-carbonitrile]
21 | 0.002 µM | Cc1ccc2c(c1)c(N1CCC(Sc3ccccc3)CC1)c(C#N)c(=O)n2C [Example 142, 1,6-dimethyl-2-oxo-4-[4-(phenylsulfanyl)piperidin-1-yl]-1,2-dihydroquinoline-3-carbonitrile]
22 | 0.0093 µM | Cc1ccc2c(c1)c(N1CCC(Oc3ccccc3C#N)CC1)c(C#N)c(=O)n2C [Example 155, 4-[4-(2-cyanophenoxy)piperidin-1-yl]-1,6-dimethyl-2-oxo-1,2-dihydroquinoline-3-carbonitrile]
23 | 0.059 µM | Cc1ccc2c(c1)c(N1CCC(Oc3ccccc3Cl)CC1)c(C(N)=O)c(=O)n2C [Example 163, 4-[4-(2-chlorophenoxy)piperidin-1-yl]-1,6-dimethyl-2-oxo-1,2-dihydroquinoline-3-carboxamide]
24 | 0.017 µM | Cn1c(=O)c(C#N)c(N2CCC(Oc3ccc(F)cc3)CC2)c2cc(C#N)ccc21 [Example 146, 4-[4-(4-fluorophenoxy)piperidin-1-yl]-1-methyl-2-oxo-1,2-dihydroquinoline-3,6-dicarbonitrile]
25 | 0.018 µM | Cn1c(=O)c(C#N)c(N2CCCC(Oc3ccc(Br)cc3)CC2)c2ccccc21 (racemic) [Example 103, (rac)-4-[4-(4-bromophenoxy)azepan-1-yl]-1-methyl-2-oxo-1,2-dihydroquinoline-3-carbonitrile]
26 | 0.029 µM | COc1cccc(COC2CCN(c3c(C#N)c(=O)n(C)c4ccccc34)CC2)c1 [Example 115, 4-{4-[(3-methoxyphenyl)methoxy]piperidin-1-yl}-1-methyl-2-oxo-1,2-dihydroquinoline-3-carbonitrile]
27 | 0.006 µM | COc1ccccc1COC1CCN(c2c(C#N)c(=O)n(C)c3ccccc23)CC1 [Example 117, 4-{4-[(2-methoxyphenyl)methoxy]piperidin-1-yl}-1-methyl-2-oxo-1,2-dihydroquinoline-3-carbonitrile]
28 | 0.122 µM | Cn1c(=O)c(C(N)=O)c(N2CCC(Oc3ccc(Cl)cc3)CC2)c2ccc(N3CCCC3=O)cc21 [Example 97, 4-[4-(4-chlorophenoxy)piperidin-1-yl]-1-methyl-2-oxo-7-(2-oxopyrrolidin-1-yl)-1,2-dihydroquinoline-3-carboxamide]
29 | 0.037 µM | Cn1c(=O)c(C#N)c(N2CCC(Oc3ccc(OC(F)(F)F)cc3)CC2)c2cccc(N=S(C)(C)=O)c21 [Example 134, 8-{[dimethyl(oxo)-λ^6-sulfanylidene]amino}-1-methyl-2-oxo-4-{4-[4-(trifluoromethoxy)phenoxy]piperidin-1-yl}-1,2-dihydroquinoline-3-carbonitrile]
